According to publication PMC6277434, “Discovery of a potent HMG-CoA reductase degrader that eliminates statin-induced reductase accumulation and lowers cholesterol” (Nature Communications, 2018):

Columns and labels:
WT HMGCR = target: T1, WT HMGCR (Cricetulus griseus, UniProt P00347); experiment: Degradation of transfected wild-type HMGCR (with Insig-1) in CHO-7 cells; assay type: cell-based; conditions: cells co-expressing wild-type HMGCR and Insig-1, 5 h
T1 construct: expressed in transfected cells; host or cells: CHO-7
T1 sequence (P00347 1-887): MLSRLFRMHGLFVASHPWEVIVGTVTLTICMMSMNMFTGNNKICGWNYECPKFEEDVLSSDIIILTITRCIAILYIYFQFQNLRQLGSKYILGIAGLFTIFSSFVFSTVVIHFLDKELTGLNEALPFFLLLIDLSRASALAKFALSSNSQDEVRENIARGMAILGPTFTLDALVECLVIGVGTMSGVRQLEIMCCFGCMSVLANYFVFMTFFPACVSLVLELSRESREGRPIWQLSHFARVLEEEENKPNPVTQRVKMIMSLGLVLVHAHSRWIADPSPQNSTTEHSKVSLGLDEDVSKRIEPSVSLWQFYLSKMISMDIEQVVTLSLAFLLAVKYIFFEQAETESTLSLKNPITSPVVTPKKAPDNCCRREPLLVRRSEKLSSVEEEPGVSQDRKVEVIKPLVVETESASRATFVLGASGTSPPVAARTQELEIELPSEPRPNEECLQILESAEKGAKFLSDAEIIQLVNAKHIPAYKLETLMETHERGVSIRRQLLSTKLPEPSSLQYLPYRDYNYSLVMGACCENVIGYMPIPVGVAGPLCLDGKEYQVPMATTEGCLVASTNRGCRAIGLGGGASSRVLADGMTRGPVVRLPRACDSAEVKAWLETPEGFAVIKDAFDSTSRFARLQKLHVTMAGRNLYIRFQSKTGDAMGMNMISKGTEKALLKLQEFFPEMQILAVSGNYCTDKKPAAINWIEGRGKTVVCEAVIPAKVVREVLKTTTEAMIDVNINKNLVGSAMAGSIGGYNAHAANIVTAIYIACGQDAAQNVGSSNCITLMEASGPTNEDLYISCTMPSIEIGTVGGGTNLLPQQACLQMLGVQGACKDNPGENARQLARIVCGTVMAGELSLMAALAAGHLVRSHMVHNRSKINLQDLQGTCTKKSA
T1 sequence (O15503 1-277 partner): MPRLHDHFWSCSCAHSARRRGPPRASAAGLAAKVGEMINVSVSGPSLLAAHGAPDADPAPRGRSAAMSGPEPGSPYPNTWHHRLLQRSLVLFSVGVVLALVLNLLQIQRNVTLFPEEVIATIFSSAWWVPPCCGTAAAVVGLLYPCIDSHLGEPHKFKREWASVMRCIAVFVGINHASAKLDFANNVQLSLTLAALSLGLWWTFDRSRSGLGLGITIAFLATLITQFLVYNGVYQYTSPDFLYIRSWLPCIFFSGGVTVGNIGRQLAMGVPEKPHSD
Procedure: HMGCR protein of DMSO-treated cells was defined as 100. […] Lysates were immunoprecipitated and pellets were probed for anti-ubiquitin (P4D1) and anti-HMGCR (A9). e CHO-7 cells were transfected with indicated plasmids and treated as in d. Lysates were immunoprecipitated with anti-Flag M2 beads, and pellets were probed for anti-ubiquitin (HA) and anti-HMGCR (Flag). f CHO-7 cells were transfected with indicated plasmids, then treated with Cmpd 81 for 5 h. […] Data are from three independent experiments and presented as mean ± SD. Source data are provided as a Source Data File.
Cells were harvested and homogenized in the RIPA buffer (50 mM Tris-HCl, pH 8.0, 150 mM NaCl, 2 mM MgCl2, 1.5% NP-40, 0.1% SDS, and 0.5% sodium deoxycholate) supplemented with protease cocktail inhibitor, 10 μM MG-132, 10 μg ml^−1 leupeptin and 1 mM phenylmethylsulfonyl fluoride. The protein concentrations of lysates were determined using BCA method (Beyotime). […] Western blot images were captured by Amersham Imager 600 (GE Healthcare), and integrated optical intensities of each band were quantified by Image-Pro Plus 6 software (Media Cybernetics). […]

hERG potassium channel = hERG potassium channel (Homo sapiens, UniProt Q12809); experiment: hERG electrophysiology patch-clamp assay (CHO-hERG cells, QPatch); conditions: even at 40 μM
Hmgcr mRNA [1] = experiment: RT-qPCR of exogenous WT and mutated Hmgcr mRNA in Huh7 cells; assay type: cell-based; conditions: lovastatin
Procedure: (§1) Cells were treated as described in corresponding figure legends, then total RNA was extracted from cells or mouse livers using TRI Reagent (T9424, Sigma-Aldrich). Equal amounts of RNA from cells or mice receiving the same treatment were pooled were used for cDNA synthesis with oligo dT and reverse transcriptase MLV (Promega). Gene expression was analyzed by quantitative real-time PCR on a Stratagene Mx30005PTM Q-PCR Systems. The primers used were listed in Supplementary Tables 2–4.
a CHO-7 cells were treated with or without 1 μM lovastatin in medium B with 5%
LDPS and 50 μM mevalonate for 16 h, and harvested for total RNA isolation and
RT-qPCR. Quantifications of the relative mRNA levels of indicated SREBP target
(1 picture or pasted object on this page, not shown here)

Hmgcr mRNA [2] = experiment: RT-qPCR of Hmgcr mRNA in SRD-13A cells; assay type: cell-based, Chinese hamster; parameters: HMGCR mRNA level, mean: scale not given here; conditions: for HMGCR mRNA level, mean: SRD-13A, 16 h
Procedure: as §1

hERG potassium channel, sequence (Q12809 whole entry): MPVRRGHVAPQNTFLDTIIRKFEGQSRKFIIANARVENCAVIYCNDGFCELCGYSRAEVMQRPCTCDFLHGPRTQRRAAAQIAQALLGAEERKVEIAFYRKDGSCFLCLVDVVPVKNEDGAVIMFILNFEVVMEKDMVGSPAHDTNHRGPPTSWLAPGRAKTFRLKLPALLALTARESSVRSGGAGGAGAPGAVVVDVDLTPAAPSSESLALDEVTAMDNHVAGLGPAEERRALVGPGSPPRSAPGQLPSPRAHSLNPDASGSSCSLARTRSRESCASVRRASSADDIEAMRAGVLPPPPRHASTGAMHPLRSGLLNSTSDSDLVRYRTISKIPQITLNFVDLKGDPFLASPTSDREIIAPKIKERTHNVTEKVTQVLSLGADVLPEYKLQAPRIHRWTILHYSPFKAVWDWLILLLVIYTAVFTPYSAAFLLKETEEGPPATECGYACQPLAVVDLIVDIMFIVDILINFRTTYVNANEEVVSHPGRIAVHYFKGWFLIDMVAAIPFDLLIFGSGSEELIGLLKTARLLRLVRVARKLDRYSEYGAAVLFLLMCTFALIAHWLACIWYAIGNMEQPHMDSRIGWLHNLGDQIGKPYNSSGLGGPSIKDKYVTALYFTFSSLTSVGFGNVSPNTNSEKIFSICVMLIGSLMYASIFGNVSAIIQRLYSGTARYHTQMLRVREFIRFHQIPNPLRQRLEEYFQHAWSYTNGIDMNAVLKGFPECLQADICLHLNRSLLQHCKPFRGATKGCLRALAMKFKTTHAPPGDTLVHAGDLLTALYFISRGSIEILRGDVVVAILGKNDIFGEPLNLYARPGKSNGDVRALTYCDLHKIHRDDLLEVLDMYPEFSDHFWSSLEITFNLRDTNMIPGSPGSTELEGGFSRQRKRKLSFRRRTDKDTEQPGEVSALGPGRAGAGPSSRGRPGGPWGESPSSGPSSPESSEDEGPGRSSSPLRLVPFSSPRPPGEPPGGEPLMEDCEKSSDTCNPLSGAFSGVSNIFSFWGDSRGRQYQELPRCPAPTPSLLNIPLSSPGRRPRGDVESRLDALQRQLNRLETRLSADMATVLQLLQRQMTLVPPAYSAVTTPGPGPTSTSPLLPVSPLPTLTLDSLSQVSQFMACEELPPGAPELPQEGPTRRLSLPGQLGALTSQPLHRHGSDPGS

SMILES | protein level of transfected wild-type HMGCR (WT HMGCR) | inhibition of hERG peak tail currents (hERG potassium channel) | mRNA levels of both WT and mutated Hmgcr (Hmgcr mRNA [1]) | change in the amounts of Hmgcr mRNA (Hmgcr mRNA [2]; SRD-13A cells, lovastatin 16 h) | HMGCR mRNA level, mean (Hmgcr mRNA [2]; lovastatin 0.001 uM) | HMGCR mRNA level, mean (Hmgcr mRNA [2]; lovastatin 0.003 uM) | HMGCR mRNA level, mean (Hmgcr mRNA [2]; lovastatin 0.01 uM) | HMGCR mRNA level, mean (Hmgcr mRNA [2]; lovastatin 0.03 uM) | HMGCR mRNA level, mean (Hmgcr mRNA [2]; lovastatin 0.1 uM) | HMGCR mRNA level, mean (Hmgcr mRNA [2]; lovastatin 0.3 uM) | HMGCR mRNA level, mean (Hmgcr mRNA [2]; lovastatin 1 uM) | HMGCR mRNA level, mean (Hmgcr mRNA [2]; lovastatin 3 uM) | HMGCR mRNA level, mean (Hmgcr mRNA [2]; lovastatin 10 uM)
C=CCC(O)(CC=C)CCCC(C)C1CCC2C3C(O)C=C4C(C)(C)C(O)CCC4(C)C3CCC12C (stereo not shown) [Cmpd 81] | a reduction of the protein level | no inhibition effect |  |  |  |  |  |  |  |  |  |  | 
CC[C@H](C)C(=O)O[C@H]1C[C@@H](C)C=C2C=C[C@H](C)[C@H](CC[C@@H]3C[C@@H](O)CC(=O)O3)[C@H]21 [Lovastatin, lovastatin] |  |  | did not show obvious change | no change | 1 | 1.03 | 1.0471 | 1.185 | 1.052 | 0.9958 | 1.197 | 1.009 | 1.04
